From US20230201209A1, “PHARMACEUTICAL COMPOSITION FOR PREVENTING OR TREATING CANCER CONTAINING ANTIVIRAL AGENT AND ANTIDEPRESSANT AS ACTIVE INGREDIENTS” (FRONTBIO INC., priority 2020, published 2023) come the findings set out here.

Where two headings read alike, the source gives them in different places.

For the experiment, the system named is various cancer cells. In words: MTT analysis, summary statements on various cancer cells. It counts as cell-based. On the procedure: Specifically, ASPC-1 cell line, which is a pancreatic cancer cell line, and HCT116 cell line, which is a colon cancer cell line, was incubated in a 100 mm culture dish using DMEM-10% FBS under 5% CO2 at 37° C., inoculated into each well of a 96-well plate at 20% confluence, and incubated for 24 hours. The incubated cell lines were treated with efavirenz at a concentration of 2 μM and fluoxetine at a concentration of 2 μM alone or in combination and cultured in a CO2 incubator for 24 hours. The culture medium was removed from each well, 100 pl of a fresh culture medium was added, and 10 μl of a 12 mM MTT stock solution (5 mg MTT/PBS) was added, and incubation was performed at 37° C. for 2 hours. Thereafter, 100 pl of SDS-HCl solution (1 g SDS/10 ml 0.01 M HCl), which was a reaction terminating solution, was added, incubation was performed at 37° C. for 4 hours, and OD was measured at 570 nm using a microplate leader. Percentage (%) growth inhibition was calculated by comparing the OD thus measured to the OD of the cells not treated with drugs.

The mark [1] stands for this setting: treated singly or in a complex, mixed or combined manner, MTT analysis.

Consider `CN(C)CCC=C1c2ccccc2CCc2ccccc21` [amitriptyline], for which, under setting [1], the “growth inhibitory effect in cancer cells” value is reported as “a growth inhibitory effect is exerted”.
As to `Clc1ccc2c(c1)C(N1CCNCC1)=Nc1ccccc1O2` [amoxapine], the “growth inhibitory effect in cancer cells” value under setting [1] is listed as “a growth inhibitory effect is exerted”.
As for `COC(=O)N[C@H](C(=O)N[C@@H](Cc1ccccc1)[C@@H](O)CN(Cc1ccc(-c2ccccn2)cc1)NC(=O)[C@@H](NC(=O)OC)C(C)(C)C)C(C)(C)C` [atazanavir], the “growth inhibitory effect in cancer cells” value under setting [1] is reported as “a growth inhibitory effect is exerted”.
As for `CN(C)CCCN1c2ccccc2CCc2ccc(Cl)cc21` [clomipramine], under setting [1], the “growth inhibitory effect in cancer cells” value is recorded as “a growth inhibitory effect is exerted”.
As for `CC(C)CN(C[C@@H](O)[C@H](Cc1ccccc1)NC(=O)O[C@H]1CO[C@H]2OCC[C@H]21)S(=O)(=O)c1ccc(N)cc1` [darunavir], the “growth inhibitory effect in cancer cells” value is given as “a growth inhibitory effect is exerted”.
With `CNCCCN1c2ccccc2CCc2ccccc21` [desipramine], the “growth inhibitory effect in cancer cells” value under setting [1] was “a growth inhibitory effect is exerted”.
Consider `CNCC[C@H](Oc1cccc2ccccc12)c1cccs1` [duloxetine], for which the “growth inhibitory effect in cancer cells” value is reported as “a growth inhibitory effect is exerted”.
Regarding `O=C1Nc2ccc(Cl)cc2[C@@](C#CC2CC2)(C(F)(F)F)O1` [efavirenz], the “growth inhibitory effect in cancer cells” value under setting [1] is recorded as “a growth inhibitory effect is exerted”.
Same read-out and setting: the result for `Cc1cc(C#N)cc(C)c1Oc1nc(Nc2ccc(C#N)cc2)nc(N)c1Br` [etravirine] reads “a growth inhibitory effect is exerted”; that for `CNCCC(Oc1ccc(C(F)(F)F)cc1)c1ccccc1` (centres unmarked) [fluoxetine], “a growth inhibitory effect is exerted”.
The same measure, in the same setting: the result for `COCCCC/C(=N\OCCN)c1ccc(C(F)(F)F)cc1` [fluvoxamine] reads “a growth inhibitory effect is exerted”.
`Cc1cccc(C)c1OCC(=O)N[C@@H](Cc1ccccc1)[C@@H](O)C[C@H](Cc1ccccc1)NC(=O)[C@H](C(C)C)N1CCCNC1=O` [lopinavir]: the “growth inhibitory effect in cancer cells” value under setting [1] is reported as “a growth inhibitory effect is exerted”.
Same read-out and setting: next, `CNCCCC12CCC(c3ccccc31)c1ccccc12` [maprotyline, maprotiline]: “a growth inhibitory effect is exerted”; `CN(C)CCC=C1c2ccccc2C(C)(C)c2ccccc21` [melitracene, melitracen]: “a growth inhibitory effect is exerted”.
`CN(C)C(=N)NC(=N)N` [metformin]: the “growth inhibitory effect in cancer cells” value under setting [1] was “a growth inhibitory effect is exerted”.
Take `CNCCC=C1c2ccccc2CCc2ccccc21` [nortriptyline]: the “growth inhibitory effect in cancer cells” value under setting [1] is “a growth inhibitory effect is exerted”.
Consider `Fc1ccc([C@@H]2CCNC[C@H]2COc2ccc3c(c2)OCO3)cc1` [paroxetine], for which, under setting [1], the “growth inhibitory effect in cancer cells” value was “a growth inhibitory effect is exerted”.
For `CNCCCC1c2ccccc2C=Cc2ccccc21` [protriptyline], the “growth inhibitory effect in cancer cells” value under setting [1] is given as “a growth inhibitory effect is exerted”.
Turning to `CC(C)c1nc(CN(C)C(=O)N[C@H](C(=O)N[C@@H](Cc2ccccc2)C[C@H](O)[C@H](Cc2ccccc2)NC(=O)OCc2cncs2)C(C)C)cs1` [ritonavir], the “growth inhibitory effect in cancer cells” value under setting [1] was “a growth inhibitory effect is exerted”.
The same measure, in the same setting: next, `CC(CN(C)C)CN1c2ccccc2CCc2ccccc21` (centres unmarked) [trimipramine]: “a growth inhibitory effect is exerted”.
